Laboratory results reported in the supplement of paper PMC10883282.

Tests used:
Assay in all cases: relative viability vs DMSO control (72 h) (fraction); higher = more viable cells
SW872 = test system: SW872
Summary of the method: (§1)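 A 5 µM positive control and 0.1% DMSO vehicle ran alongside sarcoma cell lines seeded in 384-well plates to reach 80–90% confluence. Serially diluted compound, 2.5 µl from source plates of 10 mM to 0.0002 mM, was added after 24 h, and the plates were held 72 h at 37 °C, 5% CO2. Relative viability was worked out from ATPLite readings as percent growth averaged over up to triplicate wells. The values were rescaled so that 1 is full and 0 is none.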

KHOS-240S = test system: KHOS-240S
Summary of the method: as §1

SK-LMS-1 = test system: SK-LMS-1
Summary of the method: as §1

SW1353 = test system: SW1353
Summary of the method: as §1

RD-ES = test system: RD-ES
Summary of the method: as §1

HT1080 = test system: HT1080
Summary of the method: as §1

RD = test system: RD
Summary of the method: as §1

SYO-1 = test system: SYO-1
Summary of the method: as §1

G401 = test system: G401
Summary of the method: as §1

HS729 = test system: HS729
Summary of the method: as §1

SW684 = test system: SW684
Summary of the method: as §1

KHOS-NP = test system: KHOS-NP
Summary of the method: as §1

COc1cc(Nc2ncc(F)c(Nc3ccc4c(n3)N(COP(=O)(O)O)C(=O)C(C)(C)O4)n2)cc(OC)c1OC [Fostamatinib]
Conditions | relative viability
G401, 0.00017 µM | 0.9887
G401, 0.00051 µM | 1.01
G401, 0.00152 µM | 1.03
G401, 0.00457 µM | 1.07
G401, 0.01372 µM | 1.004
G401, 0.04115 µM | 1.05
G401, 0.1235 µM | 0.986
G401, 0.3704 µM | 0.962
G401, 1.111 µM | 0.75
G401, 3.333 µM | 0.212
G401, 10 µM | 0.0346
HS729, 0.00017 µM | 0.913
HS729, 0.00051 µM | 0.952
HS729, 0.00152 µM | 0.938
HS729, 0.00457 µM | 0.961
HS729, 0.01372 µM | 0.982
HS729, 0.04115 µM | 0.914
HS729, 0.1235 µM | 0.845
HS729, 0.3704 µM | 0.724
HS729, 1.111 µM | 0.726
HS729, 3.333 µM | 0.519
HS729, 10 µM | 0.586
HT1080, 0.00017 µM | 1.06
HT1080, 0.00051 µM | 1.07
HT1080, 0.00152 µM | 1.08
HT1080, 0.00457 µM | 1.07
HT1080, 0.01372 µM | 1.06
HT1080, 0.04115 µM | 1.06
HT1080, 0.1235 µM | 1.09
HT1080, 0.3704 µM | 1.101
HT1080, 1.111 µM | 1.06
HT1080, 3.333 µM | 0.937
HT1080, 10 µM | 0.658
KHOS-240S, 0.00017 µM | 1.08
KHOS-240S, 0.00051 µM | 1.08
KHOS-240S, 0.00152 µM | 1.08
KHOS-240S, 0.00457 µM | 1.08
KHOS-240S, 0.01372 µM | 1.07
KHOS-240S, 0.04115 µM | 1.07
KHOS-240S, 0.1235 µM | 1.01
KHOS-240S, 0.3704 µM | 0.892
KHOS-240S, 1.111 µM | 0.559
KHOS-240S, 3.333 µM | 0.196
KHOS-240S, 10 µM | 0.0301
KHOS-NP, 0.00017 µM | 1.09
KHOS-NP, 0.00051 µM | 1.08
KHOS-NP, 0.00152 µM | 1.1
KHOS-NP, 0.00457 µM | 1.091
KHOS-NP, 0.01372 µM | 1.07
KHOS-NP, 0.04115 µM | 1.089
KHOS-NP, 0.1235 µM | 1.09
KHOS-NP, 0.3704 µM | 1.05
KHOS-NP, 1.111 µM | 0.98
KHOS-NP, 3.333 µM | 0.64
KHOS-NP, 10 µM | 0.278
RD, 0.00017 µM | 1.09
RD, 0.00051 µM | 1.1
RD, 0.00152 µM | 1.11
RD, 0.00457 µM | 1.1
RD, 0.01372 µM | 1.11
RD, 0.04115 µM | 1.13
RD, 0.1235 µM | 1.07
RD, 0.3704 µM | 0.991
RD, 1.111 µM | 0.96
RD, 3.333 µM | 0.535
RD, 10 µM | 0.457
RD-ES, 0.00017 µM | 0.9556
RD-ES, 0.00051 µM | 0.964
RD-ES, 0.00152 µM | 0.9726
RD-ES, 0.00457 µM | 0.958
RD-ES, 0.01372 µM | 0.972
RD-ES, 0.04115 µM | 0.9768
RD-ES, 0.1235 µM | 0.943
RD-ES, 0.3704 µM | 0.792
RD-ES, 1.111 µM | 0.715
RD-ES, 3.333 µM | 0.484
RD-ES, 10 µM | 0.144
SK-LMS-1, 0.00017 µM | 1.06
SK-LMS-1, 0.00051 µM | 1.03
SK-LMS-1, 0.00152 µM | 1.05
SK-LMS-1, 0.00457 µM | 1.05
SK-LMS-1, 0.01372 µM | 1.03
SK-LMS-1, 0.04115 µM | 1.029
SK-LMS-1, 0.1235 µM | 0.897
SK-LMS-1, 0.3704 µM | 0.819
SK-LMS-1, 1.111 µM | 0.769
SK-LMS-1, 3.333 µM | 0.618
SK-LMS-1, 10 µM | 0.403
SW684, 0.00017 µM | 1.14
SW684, 0.00051 µM | 1.17
SW684, 0.00152 µM | 1.15
SW684, 0.00457 µM | 1.17
SW684, 0.01372 µM | 1.13
SW684, 0.04115 µM | 1.18
SW684, 0.1235 µM | 1.09
SW684, 0.3704 µM | 1.03
SW684, 1.111 µM | 0.877
SW684, 3.333 µM | 0.618
SW684, 10 µM | 0.481
SW872, 0.00017 µM | 1.09
SW872, 0.00051 µM | 1.07
SW872, 0.00152 µM | 1.08
SW872, 0.00457 µM | 1.09
SW872, 0.01372 µM | 1.08
SW872, 0.04115 µM | 1.05
SW872, 0.1235 µM | 0.977
SW872, 0.3704 µM | 0.795
SW872, 1.111 µM | 0.617
SW872, 3.333 µM | 0.267
SW872, 10 µM | 0.202
SW1353, 0.00017 µM | 0.996
SW1353, 0.00051 µM | 0.997
SW1353, 0.00152 µM | 0.997
SW1353, 0.00457 µM | 1.01
SW1353, 0.01372 µM | 0.9999
SW1353, 0.04115 µM | 0.965
SW1353, 0.1235 µM | 0.8997
SW1353, 0.3704 µM | 0.773
SW1353, 1.111 µM | 0.6
SW1353, 3.333 µM | 0.296
SW1353, 10 µM | 0.256
SYO-1, 0.00017 µM | 0.964
SYO-1, 0.00051 µM | 0.953
SYO-1, 0.00152 µM | 0.969
SYO-1, 0.00457 µM | 0.958
SYO-1, 0.01372 µM | 0.966
SYO-1, 0.04115 µM | 0.922
SYO-1, 0.1235 µM | 0.912
SYO-1, 0.3704 µM | 0.656
SYO-1, 1.111 µM | 0.379
SYO-1, 3.333 µM | 0.22
SYO-1, 10 µM | 0.167
